Reference: patent US20140031278A1, “Novel Glucagon Analogues” (NOVO NORDISK A/S, priority 2011, published 2014)
*1 amine or outer side, *2 acyl side, *3 side chain or, on linkers, in order; H or OH if unused. Where a SMILES comes first, the peptide text is derived from it. Side-chain parts run from the residue outwards. γGlu = O=C(O)[C@H](CCC(=O)[*:2])N[*:1]

target: T1, glucagon receptor (Homo sapiens, UniProt P47871); assay: Assay (I) Glucagon activity (cAMP biosensor, FLIPR); type: cell-based; settings: HEK-293 cells with cloned glucagon receptor and cAMP biosensor; end point after 6 minutes
T1 construct: expressed in transfected cells
Method: The glucagon receptor was cloned into HEK-293 cells having a membrane bound cAMP biosensor (ACTOne™). The cells (14000 per well) were incubated (37° C., 5% CO2) overnight in 384-well plates. Next day the cells were loaded with a calcium responsive dye that only distributed into the cytoplasm. Probenecid, an inhibitor of the organic anion transporter, was added to prevent the dye from leaving the cell. A PDE inhibitor was added to prevent formatted cAMP from being degraded, The plates were placed into a […] and the glucagon analogues were added. End point data were collected after 6 minutes. An increase in intracellular cAMP was proportional to an increased in calcium concentrations in the cytoplasm. When calcium was bound the dry a fluorescence signal was generated. EC50-values were calculated in Prism5.

T1 sequence (P47871 26-477): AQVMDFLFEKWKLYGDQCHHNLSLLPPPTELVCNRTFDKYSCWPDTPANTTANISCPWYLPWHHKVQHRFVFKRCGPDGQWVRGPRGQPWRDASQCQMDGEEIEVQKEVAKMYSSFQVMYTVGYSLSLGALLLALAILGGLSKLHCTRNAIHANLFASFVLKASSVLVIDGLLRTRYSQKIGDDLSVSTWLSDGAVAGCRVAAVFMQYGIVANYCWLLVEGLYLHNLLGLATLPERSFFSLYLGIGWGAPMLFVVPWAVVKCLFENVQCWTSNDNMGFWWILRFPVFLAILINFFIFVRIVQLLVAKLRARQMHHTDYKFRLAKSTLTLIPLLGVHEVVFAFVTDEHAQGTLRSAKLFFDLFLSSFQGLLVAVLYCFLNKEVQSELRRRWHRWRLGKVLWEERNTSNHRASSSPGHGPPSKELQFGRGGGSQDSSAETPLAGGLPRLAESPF

SMILES	EC50
CC(=O)N[C@@H](CCC(=O)N[C@@H](CCC(=O)N[C@@H](CCC(=O)N[C@@H](CCC(=O)NCCCC[C@H](NC(=O)[C@@H](NC(=O)[C@H](Cc1ccccc1)NC(=O)[C@H](CCC(=O)O)NC(=O)[C@H](CCC(N)=O)NC(=O)[C@H](C)NC(=O)[C@H](CCCNC(=N)N)NC(=O)[C@H](CCCNC(=N)N)NC(=O)[C@H](CO)NC(=O)[C@H](CCC(=O)O)NC(=O)[C@H](CC(C)C)NC(=O)[C@H](Cc1ccc(O)cc1)NC(=O)[C@H](CCCCN)NC(=O)[C@H](CO)NC(=O)[C@@H](NC(=O)[C@H](CC(=O)O)NC(=O)[C@H](CO)NC(=O)[C@@H](NC(=O)[C@H](Cc1ccccc1)NC(=O)[C@@H](NC(=O)CNC(=O)[C@H](CCC(N)=O)NC(=O)[C@H](CO)NC(=O)[C@@H](N)Cc1c[nH]cn1)[C@@H](C)O)[C@@H](C)O)C(C)C)C(C)C)C(=O)N[C@@H](Cc1c[nH]c2ccccc12)C(=O)N[C@@H](CC(C)C)C(=O)N[C@@H](CC(C)C)C(=O)N[C@@H](CO)C(=O)N[C@H](C(=O)O)[C@@H](C)O)C(=O)O)C(=O)O)C(=O)O)C(=O)O [Example 45, N^ε24-[(4S)-4-[[(4S)-4-[[(4S)-4-[[(4S)-4-acetamido-4-carboxybutanoyl]amino]-4-carboxybutanoyl]amino]-4-carboxybutanoyl]amino]-4-carboxybutanoyl]-[Val^10,Glu^15,Glu^21,Lys^24,Leu^27,Ser^28]-Glucagon] (H-HSQGTFTSDVSKYLESRRAQEFVK([γGlu-γGlu-γGlu-γGlu-Ac])WLLST-OH)	0.027 nM
CC(C)C[C@H](NC(=O)[C@H](Cc1ccc(O)cc1)NC(=O)[C@H](CCCNC(=N)N)NC(=O)[C@H](CO)NC(=O)[C@H](Cc1ccc(O)cc1)NC(=O)[C@H](CC(=O)O)NC(=O)[C@H](CO)NC(=O)[C@@H](NC(=O)[C@H](Cc1ccccc1)NC(=O)[C@@H](NC(=O)CNC(=O)[C@H](Cc1c[nH]cn1)NC(=O)[C@H](CO)NC(=O)[C@@H](N)Cc1c[nH]cn1)[C@@H](C)O)[C@@H](C)O)C(=O)N[C@@H](CCC(=O)O)C(=O)N[C@@H](CO)C(=O)N[C@@H](CCCNC(=N)N)C(=O)N[C@@H](CCCNC(=N)N)C(=O)N[C@@H](C)C(=O)N[C@@H](C)C(=O)N[C@@H](CC(=O)O)C(=O)N[C@@H](Cc1ccccc1)C(=O)N[C@H](C(=O)N[C@@H](CCCCNC(=O)CC[C@H](NC(=O)CC[C@H](NC(=O)CC[C@H](NC(=O)CC[C@H](N)C(=O)O)C(=O)O)C(=O)O)C(=O)O)C(=O)N[C@@H](Cc1c[nH]c2ccccc12)C(=O)N[C@@H](CC(C)C)C(=O)N[C@@H](CC(C)C)C(=O)N[C@@H](CO)C(=O)N[C@H](C(=O)O)[C@@H](C)O)C(C)C [Example 6, N^ε24-[(4S)-4-[[(4S)-4-[[(4S)-4-[[(4S)-4-amino-4-carboxybutanoyl]amino]-4-carboxybutanoyl]amino]-4-carboxybutanoyl]amino]-4-carboxybutanoyl]-[His3,Arg12,Glu15,Ala20,Lys24,Leu27,Ser28]-Glucagon] (H-HSHGTFTSDYSRYLESRRAADFVK([γGlu-γGlu-γGlu-γGlu])WLLST-OH)	0.0795 nM
CC(=O)N[C@@H](CCC(=O)N[C@@H](CCC(=O)N[C@@H](CCC(=O)N[C@@H](CCC(=O)NCCCC[C@H](NC(=O)[C@@H](NC(=O)[C@H](Cc1ccccc1)NC(=O)[C@H](CC(=O)O)NC(=O)[C@H](C)NC(=O)[C@H](C)NC(=O)[C@H](CCCNC(=N)N)NC(=O)[C@H](CCCNC(=N)N)NC(=O)[C@H](Cc1ccccc1)NC(=O)[C@H](CC(=O)O)NC(=O)[C@H](CC(C)C)NC(=O)[C@H](Cc1ccc(O)cc1)NC(=O)[C@H](CCCCN)NC(=O)[C@H](CO)NC(=O)[C@H](Cc1ccc(O)cc1)NC(=O)[C@H](CC(=O)O)NC(=O)[C@H](CO)NC(=O)[C@@H](NC(=O)[C@H](Cc1ccccc1)NC(=O)[C@@H](NC(=O)CNC(=O)[C@H](Cc1c[nH]cn1)NC(=O)[C@H](CO)NC(=O)[C@@H](N)Cc1c[nH]cn1)[C@@H](C)O)[C@@H](C)O)C(C)C)C(=O)N[C@@H](Cc1c[nH]c2ccccc12)C(=O)N[C@@H](CC(C)C)C(=O)N[C@@H](CC(C)C)C(=O)N[C@@H](CO)C(=O)N[C@H](C(=O)O)[C@@H](C)O)C(=O)O)C(=O)O)C(=O)O)C(=O)O [Example 12, N^ε24-[(4S)-4-[[(4S)-4-[[(4S)-4-[[(4S)-4-acetamido-4-carboxybutanoyl]amino]-4-carboxybutanoyl]amino]-4-carboxybutanoyl]amino]-4-carboxybutanoyl]-[His3,Phe16,Ala20,Lys24,Leu27,Ser28]-Glucagon] (H-HSHGTFTSDYSKYLDFRRAADFVK([γGlu-γGlu-γGlu-γGlu-Ac])WLLST-OH)	0.0103 nM
CC(=O)N[C@@H](CCC(=O)N[C@@H](CCC(=O)N[C@@H](CCC(=O)N[C@@H](CCC(=O)NCCCC[C@H](NC(=O)[C@@H](NC(=O)[C@H](Cc1ccccc1)NC(=O)[C@H](CC(=O)O)NC(=O)[C@H](CCC(N)=O)NC(=O)[C@H](C)NC(=O)[C@H](CCCNC(=N)N)NC(=O)[C@H](CCCNC(=N)N)NC(=O)[C@H](CC(C)C)NC(=O)[C@H](CC(=O)O)NC(=O)[C@H](CC(C)C)NC(=O)[C@H](Cc1ccc(O)cc1)NC(=O)[C@H](CCCNC(=N)N)NC(=O)[C@H](CO)NC(=O)[C@H](Cc1ccc(O)cc1)NC(=O)[C@H](CC(=O)O)NC(=O)[C@H](CO)NC(=O)[C@@H](NC(=O)[C@H](Cc1ccccc1)NC(=O)[C@@H](NC(=O)CNC(=O)[C@H](CCC(N)=O)NC(=O)[C@H](CO)NC(=O)[C@@H](N)Cc1c[nH]cn1)[C@@H](C)O)[C@@H](C)O)C(C)C)C(=O)N[C@@H](Cc1c[nH]c2ccccc12)C(=O)N[C@@H](CC(C)C)C(=O)N[C@@H](CC(C)C)C(=O)N[C@@H](CO)C(=O)N[C@H](C(=O)N1CCC[C@H]1C(=O)O)[C@@H](C)O)C(=O)O)C(=O)O)C(=O)O)C(=O)O [Example 40, N^ε24-[(4S)-4-[[(4S)-4-[[(4S)-4-[[(4S)-4-acetamido-4-carboxybutanoyl]amino]-4-carboxybutanoyl]amino]-4-carboxybutanoyl]amino]-4-carboxybutanoyl]-[Arg12,Leu16,Lys24,Leu27,Ser28]-Glucagonyl-Pro] (H-HSQGTFTSDYSRYLDLRRAQDFVK([γGlu-γGlu-γGlu-γGlu-Ac])WLLSTP-OH)	0.003 nM
CC(=O)N[C@@H](CCC(=O)N[C@@H](CCC(=O)N[C@@H](CCC(=O)N[C@@H](CCC(=O)NCCCC[C@H](NC(=O)[C@@H](NC(=O)[C@H](Cc1ccccc1)NC(=O)[C@H](CC(=O)O)NC(=O)[C@H](C)NC(=O)[C@H](C)NC(=O)[C@H](CCCNC(=N)N)NC(=O)[C@H](CCCNC(=N)N)NC(=O)[C@H](CC(C)C)NC(=O)[C@H](CC(=O)O)NC(=O)[C@H](CC(C)C)NC(=O)[C@H](Cc1ccc(O)cc1)NC(=O)[C@H](CCCCN)NC(=O)[C@H](CO)NC(=O)[C@@H](NC(=O)[C@H](CC(=O)O)NC(=O)[C@H](CO)NC(=O)[C@@H](NC(=O)[C@H](Cc1ccccc1)NC(=O)[C@@H](NC(=O)CNC(=O)[C@H](Cc1c[nH]cn1)NC(=O)[C@H](C)NC(=O)[C@@H](N)Cc1c[nH]cn1)[C@@H](C)O)[C@@H](C)O)C(C)C)C(C)C)C(=O)N[C@@H](Cc1c[nH]c2ccccc12)C(=O)N[C@@H](CC(C)C)C(=O)N[C@@H](CC(C)C)C(=O)N[C@@H](CO)C(=O)N[C@H](C(=O)O)[C@@H](C)O)C(=O)O)C(=O)O)C(=O)O)C(=O)O [Example 62, N^ε24-[(4S)-4-[[(4S)-4-[[(4S)-4-[[(4S)-4-acetamido-4-carboxybutanoyl]amino]-4-carboxybutanoyl]amino]-4-carboxybutanoyl]amino]-4-carboxybutanoyl]-[Ala^2,His^3,Val^10,Leu^16,Ala^20,Lys^24,Leu^27,Ser^28]-Glucagon] (H-HAHGTFTSDVSKYLDLRRAADFVK([γGlu-γGlu-γGlu-γGlu-Ac])WLLST-OH)	0.052 nM
CC(=O)N[C@@H](CCC(=O)N[C@@H](CCC(=O)N[C@@H](CCC(=O)N[C@@H](CCC(=O)NCCCC[C@H](NC(=O)[C@@H](NC(=O)[C@H](Cc1ccccc1)NC(=O)[C@H](CC(=O)O)NC(=O)[C@H](CCC(N)=O)NC(=O)[C@H](C)NC(=O)[C@H](CCCNC(=N)N)NC(=O)[C@H](CCCNC(=N)N)NC(=O)[C@H](CC(C)C)NC(=O)[C@H](CC(=O)O)NC(=O)[C@H](CC(C)C)NC(=O)[C@H](Cc1ccc(O)cc1)NC(=O)[C@H](CCCCN)NC(=O)[C@H](CO)NC(=O)[C@H](Cc1ccc(O)cc1)NC(=O)[C@H](CC(=O)O)NC(=O)[C@H](CO)NC(=O)[C@@H](NC(=O)[C@H](Cc1ccccc1)NC(=O)[C@@H](NC(=O)CNC(=O)[C@H](CCC(N)=O)NC(=O)[C@H](CO)NC(=O)[C@@H](N)Cc1c[nH]cn1)[C@@H](C)O)[C@@H](C)O)C(C)C)C(=O)N[C@@H](Cc1c[nH]c2ccccc12)C(=O)N[C@@H](CC(C)C)C(=O)N[C@@H](CC(C)C)C(=O)N[C@@H](CO)C(=O)N[C@H](C(=O)O)[C@@H](C)O)C(=O)O)C(=O)O)C(=O)O)C(=O)O [Example 38, N^ε24-[(4S)-4-[[(4S)-4-[[(4S)-4-[[(4S)-4-acetamido-4-carboxybutanoyl]amino]-4-carboxybutanoyl]amino]-4-carboxybutanoyl]amino]-4-carboxybutanoyl]-[Leu16,Lys24,Leu27,Ser28]-Glucagon]	0.0029 nM
